Laboratory results from ChEMBL document CHEMBL1149186, “Triacylglycerols based on 2-(N-tert-butoxycarbonylamino)oleic acid are potent inhibitors of pancreatic lipase” (J Med Chem, 2004).

Columns and labels:
[1] = target: T1, Gastric triacylglycerol lipase (Homo sapiens) (UniProt P07098); experiment: Inhibition constant (molar fraction of compound) on human gastric lipase (HGL) at a constant surface pressure of 27 […]; conditions: Stomach
T1 sequence (whole entry): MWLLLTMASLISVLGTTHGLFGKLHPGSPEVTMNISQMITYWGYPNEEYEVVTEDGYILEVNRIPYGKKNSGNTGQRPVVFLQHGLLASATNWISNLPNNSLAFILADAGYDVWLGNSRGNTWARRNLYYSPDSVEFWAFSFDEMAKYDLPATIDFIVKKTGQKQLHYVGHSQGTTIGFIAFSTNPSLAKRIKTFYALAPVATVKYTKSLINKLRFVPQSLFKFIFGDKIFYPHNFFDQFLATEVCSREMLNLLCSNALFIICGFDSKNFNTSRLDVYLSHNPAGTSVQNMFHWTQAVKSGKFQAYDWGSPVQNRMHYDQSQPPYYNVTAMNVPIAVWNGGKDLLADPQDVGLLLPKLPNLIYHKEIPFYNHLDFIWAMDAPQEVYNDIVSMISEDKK

[2] = target: T2, Pancreatic triacylglycerol lipase (Homo sapiens) (UniProt P16233); experiment: Inhibition constant (molar fraction of compound) on human pancreatic lipase (HPL) at a constant surface pressure of 25 […]
T2 sequence (whole entry): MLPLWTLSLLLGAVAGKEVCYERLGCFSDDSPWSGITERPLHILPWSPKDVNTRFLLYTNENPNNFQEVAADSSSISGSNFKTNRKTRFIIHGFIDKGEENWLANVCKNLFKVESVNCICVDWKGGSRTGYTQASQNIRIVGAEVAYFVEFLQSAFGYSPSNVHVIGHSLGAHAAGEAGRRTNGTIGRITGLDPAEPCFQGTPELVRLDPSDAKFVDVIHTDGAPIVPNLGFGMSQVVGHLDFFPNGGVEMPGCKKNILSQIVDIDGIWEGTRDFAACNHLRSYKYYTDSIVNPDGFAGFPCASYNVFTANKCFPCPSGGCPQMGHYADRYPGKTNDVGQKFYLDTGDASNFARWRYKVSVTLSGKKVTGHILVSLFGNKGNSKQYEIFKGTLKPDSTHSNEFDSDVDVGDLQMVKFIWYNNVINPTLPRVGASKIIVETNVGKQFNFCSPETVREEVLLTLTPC

[3] = target: T1, Gastric triacylglycerol lipase (Homo sapiens); experiment: Inhibition constant (molar fraction of compound) on human gastric lipase (HGL) at a constant surface pressure of 17 […]; conditions: Stomach
[4] = target: T2, Pancreatic triacylglycerol lipase (Homo sapiens); experiment: Inhibition constant (molar fraction of compound) on human pancreatic lipase (HPL) at a constant surface pressure of 14 […]

| Structure (SMILES) | Alpha 50 (molar fraction) [1] | Alpha 50 (molar fraction) [2] | Alpha 50 (molar fraction) [3] | Alpha 50 (molar fraction) [4] |
| --- | --- | --- | --- | --- |
| CCCCCCCC/C=C\CCCCCC[C@H](NC(=O)OC(C)(C)C)C(=O)OCC(C)(COC(=O)[C@H](CCCCCC/C=C\CCCCCCCC)NC(=O)OC(C)(C)C)OC(=O)[C@H](CCCCCC/C=C\CCCCCCCC)NC(=O)OC(C)(C)C | 0.104 | 0.002 | – | – |
| CCCCCCCC/C=C\CCCCCC[C@H](NC(=O)OC(C)(C)C)C(=O)OCC(COC(=O)[C@H](CCCCCC/C=C\CCCCCCCC)NC(=O)OC(C)(C)C)OC(=O)[C@H](CCCCCC/C=C\CCCCCCCC)NC(=O)OC(C)(C)C | 0.057 | 0.003 | 0.15 | 0.009 |
